Laboratory results: patent publication US6479555B1, “Method for inducing hepatic fibrosis by repeated administration of allylalcohol” (priority 2000, dated 2002)

Legend:
[1] = system: mouse; conditions: mouse treated with carbon tetrachloride, cited from earlier work
[2] = system: Spraque-Dawley male white mice; test: Serum alanine aminotransferase (ALT) activity; assay type: in vivo, white mouse; conditions: 0.62 mmole/kg i.p. twice a week
Protocol: (§1) The present inventors used total of 30 Spraque-Dawley male white mice, injected 0.62 mmole/kg allylalcohol into the peritoneal cavity twice a week, and sacrificed ten mice each time after 4 weeks, 8 weeks, and 16 weeks.
To collect a specimen, the white mouse was sacrificed 72 hours after final injection. The mouse was put under general anesthesia using diethylether, and its abdomen was cut open at suspine position. 7-10 ml of whole blood was withdrawn with a syringe treated with heparine, and the liver tissue was extracted.
The collected blood sample was left at room temperature for 30 min, centrifuged at 3,000 g for 10 min. The serum was devided into several fractions and stored at −70° C. until used.
Serum alanine aminotransferase(hereinafter, as referred as “ALT”) activity was measured by using the automatic analyzer (Hitach, 747/200 type), which is based on the spectrophotometric quantification of […] loss using lactic dehydrogenase as a […] (Horder and Rej, 1983).

[3] = system: Spraque Dawley male white mice; test: Extent of hepatic fibrosis by histological examination (Batts and Ludwig classification) after repeated allylalcohol injection; assay type: in vivo, white mouse
Protocol: (§2) Of the forty total Spraque Dawley male white mice(weight 150-200 g), 10 mice were used as a control group and 30 mice were treated with allylalcohol.
(§3) 30 mice with treated allylalcohol were devided into three groups, each containing 10 mice. The 1st group was administered an injection with allylalcohol dissolved in saline solution with 0.3 mmole/kg into a peritoneal cavity twice a week. The 2nd and 3rd groups received 0.62 mmole/kg and 0.93 mmole/kg of allylalcohol, respectively, via the same method.
(§4) The animals were maintained 23° C. and 40% of relative humidity. The intensity of illumination was maintained for 12 hours from 6 A.M. to 6 P.M. They were sacrificed after 8 weeks.
as §1
(§5) The liver tissues of 30 mice obtained from the Example <1-2> were fixed in 10% formalin solution, stained with Masson's trichrome, and observed for the determination of fibrosis under light microscope.

[4] = system: Spraque-Dawley male white mice; test: Quantification of hepatic fibrosis by the numerical scoring system; assay type: in vivo, white mouse
Description: In order to include width of fibrosis septa and fibrosis development in sinusoid as well as that between the portals, these inventors had quantified the extent of the fibrosis using the numerical scoring system reported by Castilla-Cortaza(1997) and Oberti (1997).
To systemically analyze the result of the numerical scoring system, these inventors also used the Image precessing and analysis system program (Leica Q500 MC, Leica Cambridge Ltd, Cambridge, U. K., 1994).
The length of septa was classified as score “4” when the septa showing fibrosis from one portal to the other is one whole length, score “3” for up to ⅔, score “2” for up to ⅓, and score “1” for less than ⅓. For the width of septa, the score from 2-6 was given for the mean of widths of three different periportal septa, centriperiveinal septa and perinodal septa at four different sites.
The number for the width of septa was determined by measuring the fibrotic region of blood vessel in one node that score “4” when the whole node was filled with the fibrotic strand and a large number of the septa made the micronode, score “3” when the fibrosis region occupied up to ⅔ of the whole node area, score “2” up to ⅓, and score “1” when the fibrosis strand was little in the node.
as §1, §5

[5] = system: TGF β1 mRNA; test: Semi-quantitative measurement of TGF β1 mRNA expression in the liver tissue by RT-PCR; assay type: in vivo, white mouse
Protocol: Total RNA of the mouse liver tissue stored at −70° C. was extracted by one-step method using acid guanidinium thiocyanate-phenol-chloroform (AGPC, 1987) of Chomczynski and Sacchi. […] of the frozen liver tissue was homogenized in 1 ml of denaturing solution (4 M guanidinium thiocyanate, 25 mM sodium citrate, pH 7, 0.5% sarcosyl, 0.1 M 2-mercapto ethanol).
After the addition of 1 ml of phenol and 100 ul of chloroform were added to it, the homogenate was shaken thoroughly for 15 sec, left at 4° C. for 5 min, and centrifuged at 12,000 g and 4° C. for 15 min. The supernatant (aqueous phase) was withdrawn, mixed with equal volume of isopropanol, left at 4° C. for 15 min, and centrifuged as before.
RNA pellet was collected, washed with 75% ethanol twice, and centrifuged at 7,500 g and 4° C. for 8 min to remove ethanol. RNA pellet was dried under vacuum using the Speed Vac concentrator at −70° C. for 15 min. The dried RNA was dissolved in 20 ul of deionized distilled water(DDW) treated with 0.1% di-ethyl-pyro-carbonate (DEPC), and stored at −70° C. RNA concentration was determined by spectrophotometric measurement of absorbance at 260 nm. When the absorption ratio of A260/A280 used as an index of purity, exceeds 1.8, RNA samples were considered pure.
For the synthesis of cDNA of TGF β1 mRNA, 2 ul of total RNA extracted from the mouse liver tissue was mixed with 10 unit of Molony murine leukemia virus reverse transcriptase(M-MuLV RT), 100 ng of oligo-dT15, 1 ul of dNTP (dGTP, dATP, dTTP, dCTP), RNase inhibitor 20 unit, 0.5 ul of 100 mM dithitritol (DTT) and 4 ul of 5×buffer solution, and total volume of the reaction mixture was adjusted to 20 ul by adding 0.1% DEPC-treated DDW.
The reaction mixture was heated at 37° C. for 90 min and 95° C. for 5 min, and rapidly cooled down on ice. 80 ul of DDW was added to this cDNA mixture which was then used as a PCR template.
For amplification of TGF β1 cDNA template, a sense-primer represented by SEQ ID NO.1 and an antisense-primer represented by SEQ ID NO.2 was synthesized. The position and the PCR product size of the primer set were described in Table 7. The concentration of the synthesized primer was adjusted to 10 pmole/ul by dissolving in TE buffer solution and stored at −20° C. until used.
cDNA solution was diluted by two times until the concentration was to be 2^−1, 2^−2, 2^−3, , , , , and 2^−10, and used as PCR templates. 50 ul total of PCR reaction solution contained 4 ul of cDNA template solution, 1 unit of Taq DNA polymerase, each of 1 ul the antisense and the sense primer, 1 ul of dNTP, 5 ul of 10×buffer solution (containing 2.5 mM MgCl2) and 37.7 ul of DDW.
To prevent vaporization of the sample at high temperature, 20 ul of mineral oil was added to the reaction mixture. PCR reaction was performed with PCR automated thermal cycler (Perkin Elmer) by using a hot start method. The hot start method included a denaturation step at 94° C. for 4 min, and the primer annealing and extension step at 65° C. for 15 min (at this step, Taq DNA polymerase was added after 10 min).
The reaction system then underwent 35 cycles of heating 94° C. for 45 sec, 60° C. for 45 sec, and 72° C. for 2 min, and the extension step was completed with 5 min heating at 72° C. In the RNA synthesis, negative control was distilled water, and positive control was 1 ul of TGF β1 cDNA fragment solution provided from a Clontech Laboratory.
The amplified PCR product mixed with 6×DNA loading buffer (0.25% bromophenol blue, 0.25% xylene cylanol, 30% glycol) was analyzed by electrophoresis using 2% agarose gel containing 1 ul ethidium bromide with 1×TBE buffer solution(89 mM tris-borate, 2 mM EDTA). After the electrophoresis at 100 volt for 60 min, UV transilluminator was used to establish the visible band(FIG. 3).

[6] = system: Spraque-Dawley male white mice; test: Collagen content of liver tissues (dye-binding procedure of Jimenez); assay type: in vivo, white mouse; conditions: liver tissue
Protocol: The collagen content of liver tissues was measured by dye-binding procedure of Jimenez. The liver tissue fixed in 10% formalin and embedded in paraffin was sliced by 15 um of thickness and put on a slide glass.
After the paraffin was removed by xylene and alcohol, the sample was stained with the saturated picric acid solution containing 0.01% fast green FCF (Fluka AG, NO 42053, Switzerland), left at room temperature for 15 min, and washed with a phosphate buffer until most color came off. The sample was restained with the saturated picric acid solution containing 0.04% fast green and 0.1% Sirius red F3B (Gurr BDH Chemical Ltd., NO 34149, Poole, England), left at room temperature for 30 min in the darkroom, and washed as before.
The stained tissue sample was transferred into the tube containing 1 ml solution with equal volume of 0.1% sodium hydroxide and methanol, and the tube was slowly shaken until the color dissolved completely. The absorbance of the colored solution was measured with a spectrophotometer. The wavelength for maximum absorbance was 630 nm for fast green, and 540 nm for Sirius red. Since fast green also absorbed a little (7.78%) at 540 nm, these inventors made calculations correcting for the factor.
The amount of collagen per unit protein was obtained with the formula 1 using the color equivalence of 3 OD/mg protein and 37 OD/mg collagen for fast green and Sirius red, respectively. [formula]

[7] = system: Spraque Dawley male white mice; test: Death during repeated allylalcohol treatment; assay type: in vivo, white mouse
Protocol: as §2, §3, §4, §1

[8] = system: periportal liver; conditions: in vivo; cited from earlier work
[9] = 0.62 mmole/kg i.p. twice a week, 16 weeks
[10] = 2nd group, 0.62 mmole/kg i.p. twice a week, 8 weeks
[11] = liver tissues of the 30 mice of Example 1-2, Masson's trichrome
[12] = 0.62 mmole/kg i.p. twice a week, 4 weeks
[13] = 0.62 mmole/kg i.p. twice a week, 8 weeks

## ClC(Cl)(Cl)Cl [carbon tetrachloride]
[1]; pretreatment with phenobarbitol
  induction period: 8-10 weeks
[1]
  time to irreversible accumulation of collagen: ≤ 20 weeks

## C=CCO [allylalcohol, Allylalcohol]
[2]; 4 weeks
  ALT activity: 69.6±39.8 U/L
[2]; 8 weeks
  ALT activity: 63.8±9.6 U/L
[2]; 16 weeks
  ALT activity: 75.5±15.9 U/L
[3]; [9]
  number of mice with cirrhosis: 5
  number of mice with moderate hepatic fibrosis: 2
  number of mice with severe hepatic fibrosis: 3
[3]; [10]
  number of mice with mild hepatic fibrosis: 1
  number of mice with severe hepatic fibrosis: 5
[3]; 3rd group, 0.93 mmole/kg i.p. twice a week, 8 weeks
  number of mice with severe hepatic fibrosis: 2
[3]; [11]
  number of samples classified as cirrhosis: 5
  number of samples classified as mild: 7
  number of samples classified as moderate: 5
  number of samples classified as normal: 4
  number of samples classified as severe: 8
[4]; [12]
  number of mice with numerical score 1: 10
[4]; [13]
  number of mice with numerical score 8: 4
  number of mice with numerical score 9: 1
  number of mice with numerical score 10: 1
  number of mice with numerical score 11: 2
  number of mice with numerical score 12: 1
[4]; [9]
  number of mice with numerical score 7: 1
  number of mice with numerical score 8: 1
  number of mice with numerical score 10: 1
  number of mice with numerical score 11: 1
  number of mice with numerical score 12: 3
  number of mice with numerical score 13: 2
  number of mice with numerical score 14: 1
[4]; 4-week group, 0.62 mmole/kg i.p. twice a week
  extent of hepatic fibrosis by the numerical scoring system, all the animals: less than 2
[4]; 8-week group, 0.62 mmole/kg i.p. twice a week
  extent of hepatic fibrosis by the numerical scoring system, all the animals: higher than 7
[4]; 16-week group, 0.62 mmole/kg i.p. twice a week
  extent of hepatic fibrosis by the numerical scoring system, all the animals: higher than 7
[4]; cirrhosis group of the 30 treated mice
  numerical score: 12.4±1.5
[4]; mild group of the 30 treated mice
  numerical score: 2.6±1
[4]; moderate group of the 30 treated mice
  numerical score: 9.0±1.7
[4]; printed 'control group' (first histological class) of the 30 treated mice
  numerical score: 1.0±0
[4]; severe group of the 30 treated mice
  numerical score: 9.8±1.5
[4]; treated mice of Example 1-2
  number of tissue samples with score of 1-6: 10
  number of tissue samples with score of 7-10: 9
  number of tissue samples with score of 11-14: 10
[5]; treated for 4 weeks, Table 9 line printed 'Score 1-6'
  TGF β1 mRNA: 4.7±2.4 unit/total RNA 2 ug
[5]; treated for 8 weeks, Table 9 line printed 'Score 7-10'
  TGF β1 mRNA: 5.8±1.0 unit/total RNA 2 ug
[5]; treated for 16 weeks, Table 9 line printed 'Score 11-14'
  TGF β1 mRNA: 5.7±2.3 unit/total RNA 2 ug
[5]; treated mice with score 1-6
  TGF β1 mRNA: 4.7±2.4 unit/total RNA 2 ug
[5]; treated mice with score 7-10
  TGF β1 mRNA: 5.8±1.5 unit/total RNA 2 ug
[5]; treated mice with score 11-14
  TGF β1 mRNA: 5.7±2.0 unit/total RNA 2 ug
[6]; treated for 4 weeks
  Collagen content: 110.2±11.9 ug collagen/mg protein
[6]; treated for 8 weeks
  Collagen content: 132.5±29.3 ug collagen/mg protein
[6]; treated for 16 weeks
  Collagen content: 157.2±94.7 ug collagen/mg protein
[6]; treated mice with score 1-6
  Collagen content: 110.2±11.9 ug collagen/mg protein
[6]; treated mice with score 7-10
  Collagen content: 131.4±30.0 ug collagen/mg protein
[6]; treated mice with score 11-14
  Collagen content: 158.2±94.2 ug collagen/mg protein
[7]; [12]
  death (number of mice): 0
[7]; 0.62 mmole/kg i.p. twice a week, 8 weeks (Example 1-2)
  death (number of mice): 1
[7]; [9]
  death (number of mice): 0
[7]; 1st group, 0.3 mmole/kg i.p. twice a week, 8 weeks
  death (number of mice): 0

## C=CC=O [Acrolein, acrolein]
[8]
  liver toxicity: intense liver toxicity
